Results from PubChem BioAssay (NCI).
“And” between values parts separate entries of the source, which are not always exact repeats. Equal values may be shown once.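 Each compound was tested at five concentrations against cells in 96-well plates for 48 hours. At the GI50, growth is halved. TGI: total growth inhibition.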

How the values were obtained:
Experiment in all cases: inhibition of tumour cell growth, NCI panel, 48 h
[1] = test system: TK-10 renal
[2] = test system: DU-145 prostate
[3] = test system: MALME-3M melanoma
[4] = test system: MDA-N
[5] = test system: HL-60(TB) leukemia
[6] = test system: IGROV1 ovarian
[7] = test system: KM12 colon
[8] = test system: RPMI-8226 leukemia
[9] = test system: SF-268 CNS
[10] = test system: SN12C renal
[11] = test system: HT29 colon
[12] = test system: ACHN renal
[13] = test system: M14 melanoma

Question: For `Nc1nc(Cl)cc(NCC2(CO)CC(O)C2)n1` (stereo unspecified), which TGI [1] is on record?
Answer: Its TGI is over 100 µM.

Question: And the TGI [2]?
Answer: Its TGI is over 100 µM.

Question: And the TGI [3]?
Answer: The TGI was over 100 µM.

Question: What about the TGI [4] of the same compound?
Answer: The TGI was over 100 µM.

Question: What about the TGI [5] of the same compound?
Answer: Its TGI is over 100 µM.

Question: And the TGI [6]?
Answer: Its TGI is over 100 µM.

Question: And the TGI [7]?
Answer: The TGI was over 100 µM.

Question: What about the TGI [8] of the same compound?
Answer: The TGI was over 100 µM.

Question: What about the TGI [9] of the same compound?
Answer: Its TGI is over 100 µM.

Question: What about the TGI [10] of the same compound?
Answer: The TGI was over 100 µM.

Question: And the TGI [11]?
Answer: Its TGI is over 100 µM.

Question: And the TGI [12]?
Answer: Its TGI is over 100 µM.

Question: Which results are given for `c1ccc2c(-c3ccnc(-c4c[nH]c5ccccc45)n3)c[nH]c2c1`?
Answer: TGI [1]: > 100 µM; TGI [2]: 44.5 µM; TGI [4]: 7.33 µM; TGI [5]: 30.8 µM; TGI [6]: 14.7 µM; TGI [7]: 23.9 µM; TGI [8]: 4.61 µM; TGI [9]: > 100 µM; TGI [10]: 19.7 µM; TGI [11]: 7.33 µM; TGI [12]: > 100 µM

Question: Which results are given for `CSc1ccc(C=C2N=C(c3ccccc3)N(c3cc(C(=O)c4ccccc4)ccc3N3C(=O)/C(=C/c4ccc(SC)cc4)N=C3c3ccccc3)C2=O)cc1`?
Answer: TGI [1]: > 100 µM; TGI [2]: > 100 µM; TGI [13]: > 100 µM; TGI [4]: > 100 µM; TGI [5]: > 100 µM; TGI [6]: > 100 µM; TGI [7]: > 100 µM; TGI [8]: > 100 µM; TGI [9]: > 100 µM; TGI [10]: > 100 µM; TGI [11]: > 100 µM; TGI [12]: > 100 µM

Question: Which results are given for `[N-]=[N+]=NC1=C(N=[N+]=[N-])c2cccc3cccc(c23)C1=O`?
Answer: TGI [1]: > 100 µM; TGI [13]: > 100 µM; TGI [3]: > 100 µM; TGI [4]: > 100 µM; TGI [6]: > 100 µM; TGI [7]: > 100 µM; TGI [8]: > 100 µM; TGI [9]: > 100 µM; TGI [10]: > 100 µM; TGI [11]: > 100 µM; TGI [12]: > 100 µM

Question: For `COc1ccc([N+](=O)[O-])cc1[I+]c1cc([N+](=O)[O-])ccc1OC`, which TGI [1] is on record?
Answer: The TGI was over 100 µM.

Question: What about the TGI [2] of the same compound?
Answer: The TGI was over 100 µM.

Question: And the TGI [13]?
Answer: Its TGI is over 100 µM.

Question: And the TGI [3]?
Answer: Its TGI is 17.1 µM.

Question: What about the TGI [5] of the same compound?
Answer: The TGI was 97.6 µM.

Question: What about the TGI [6] of the same compound?
Answer: Its TGI is over 100 µM.

Question: What about the TGI [7] of the same compound?
Answer: The TGI was 94.7 µM.

Question: And the TGI [8]?
Answer: The TGI was over 100 µM.

Question: What about the TGI [9] of the same compound?
Answer: Its TGI is over 100 µM.

Question: What about the TGI [10] of the same compound?
Answer: Its TGI is over 100 µM.

Question: What about the TGI [11] of the same compound?
Answer: Its TGI is over 100 µM.

Question: What about the TGI [12] of the same compound?
Answer: The TGI was over 100 µM.

Question: Which results are given for `COc1cc(-c2c(C(C)=O)c(-c3ccccc3)n(C3OC(COC(C)=O)C(OC(C)=O)C(OC(C)=O)C3OC(C)=O)c(=S)c2C#N)ccc1O` (stereo unspecified)?
Answer: TGI [2]: > 100 µM; TGI [13]: > 100 µM; GI50 [3]: 37 µM and > 100 µM; TGI [3]: > 100 µM; TGI [4]: > 100 µM; GI50 [6]: 31.8 µM and > 100 µM; TGI [6]: > 100 µM; TGI [7]: > 100 µM; GI50 [8]: 34.5 µM; TGI [8]: > 100 µM; TGI [9]: > 100 µM; TGI [10]: > 100 µM; TGI [11]: > 100 µM; TGI [12]: > 100 µM

Question: Which results are given for `COc1ccc(/C=N/Nc2nc3ccccc3c(=O)n2-c2ccccc2)cc1`?
Answer: TGI [1]: > 100 µM; TGI [2]: > 100 µM; TGI [13]: > 100 µM; TGI [3]: > 100 µM; TGI [4]: > 100 µM; TGI [5]: > 100 µM; TGI [6]: > 100 µM; TGI [7]: > 100 µM; TGI [9]: > 100 µM; TGI [10]: > 100 µM; TGI [11]: > 100 µM; TGI [12]: > 100 µM

Question: Which results are given for `Cc1oc2nc(N(C)C)n3c(C)nnc3c2c1C`?
Answer: TGI [1]: > 100 µM; TGI [2]: > 100 µM; TGI [13]: > 100 µM; TGI [6]: > 100 µM; TGI [7]: > 100 µM; TGI [8]: > 100 µM; TGI [9]: > 100 µM; TGI [10]: > 100 µM; TGI [11]: > 100 µM; TGI [12]: > 100 µM

Question: What does the source list for `O=C1C(c2c(O)n(-c3ccccc3)c3ccccc23)=Nc2ccccc21`?
Answer: TGI [1]: 53.6 µM; TGI [2]: > 100 µM; TGI [13]: > 100 µM; TGI [3]: > 100 µM; TGI [4]: > 100 µM; TGI [6]: > 100 µM; TGI [7]: > 100 µM; TGI [8]: > 100 µM; TGI [9]: > 100 µM; TGI [10]: > 100 µM; TGI [11]: > 100 µM; TGI [12]: 79.5 µM
